Like-named read-outs stand apart in the source and are kept apart here.
Test system: breast tumor cells MDA-MB-436
Experiment: MDA-MB-436 cell activity test (CellTiter-Glo, 7 days)
Format: cell-based, human
Conditions: for IC50: 7 days incubation, read-out: IC50 (nM), MDA-MB-436 cell inhibitory activity; for inhibition at 10 µM: MDA-MB-436, MDA-MB-436 cells, read-out: Max inh. % 10 μM
Procedure: Breast tumor cells MDA-MB-436 were purchased from ATCC, the culture medium was Leibovitz's L-15+10% FBS, and the cells were cultured in a CO2-free incubator at 37° C. On day 1, the cells in the exponential growth phase were collected, and the cell suspension was adjusted to 4000 cells/135 μL with the culture medium. 135 μL of the cell suspension was added to each well of a 96-well cell culture plate and incubated overnight. On day 2, compounds at different concentrations were added, and the plate was placed in the incubator and incubated for 7 days. After the culture was completed, according to operation instructions for a CellTiter-Glo kit (Promega, G7573), 75 μL of CTG solution, which was already pre-melted and equilibrated to room temperature, was added to each well, and the mixture was uniformly mixed for 2 minutes using a microplate shaker. The plate was placed at room temperature for 10 minutes, and then […] signal values were determined using an Envision2104 plate reader (PerkinElmer). The inhibition rate was calculated using formula (1), where RLUcompound was the readout of the drug treated group, RLUcontrol was the average value of the solvent control group, and RLUblank was the average value of the cell-free well. The IC50 value was calculated using GraphPad Prism software.

[1] = Homo sapiens, MDA-MB-436, 168 h, MDA-MB-436 cells

Row | SMILES | IC50 [1] | Max inh. % 10 μM (MDA-MB-436 cells, 10 μM) | IC50 (MDA-MB-436 cells) | inhibition at 10 µM (Homo sapiens, 10 μM)
1 | CCc1cc2ncc(CN3CCN(c4ccc(C(=O)NC5CC(Nc6ccc7c(c6)C(=O)N([C@@H]6CCC(=O)NC6=O)C7=O)C5)nc4)CC3)cc2[nH]c1=O (some centres unmarked) [Compound 42, N-((1r, 3r)-3-((2-(2,6-dioxopiperidin-3-yl)-1,3-dioxoisoindolin-5-yl)amino)cyclobutyl)-5-(4-((7-ethyl-6-oxo-5,6-dihydro-1,5-naphthyridin-3-yl)methyl)piperazin-1-yl)picolinamide] |  | 86.3% | 17 nM | 
2 | CCc1cc2ncc(CN3CCN(c4ccc(NC(=O)c5cnn(C6CCN(c7ccc8c(c7)C(=O)N(C7CCC(=O)NC7=O)C8=O)CC6)c5)nc4)CC3)cc2[nH]c1=O (centres unmarked) [Compound 68, 1-(1-(2-(2,6-dioxopiperidin-3-yl)-1,3-dioxoisoindolin-5-yl)piperidin-4-yl)-N-(5-(4-((7-ethyl-6-oxo-5,6-dihydro-1,5-naphthyridin-3-yl)methyl)piperazin-1-yl)pyridin-2-yl)-1H-pyrazole-4-carboxamide] | 12.3 nM |  |  | 88.6%
3 | Cc1nc2ccc(CN3CCN(c4ccc(C(=O)NC5CCN(c6cccc(N7CCC(=O)NC7=O)c6)CC5)nc4F)CC3)c(F)c2[nH]c1=O [Compound 71, N-(1-(3-(2,4-dioxotetrahydropyrimidin-1(2H)-yl)phenyl)piperidin-4-yl)-6-fluoro-5-(4-((5-fluoro-2-methyl-3-oxo-3,4-dihydroquinoxalin-6-yl)methyl)piperazin-1-yl)picolinamide] | 73.4 nM |  |  | 99%
4 | CCc1cc2ncc(CN3CCN(c4ccc(C(=O)NC5CCN(c6cccc(NC7CCC(=O)NC7=O)c6)CC5)nc4)CC3)cc2[nH]c1=O (centres unmarked) [Compound 64] | 27.9 nM |  |  | 84.9%
5 | CCc1cc2ncc(CN3CCN(c4ccc(C(=O)NC5CCN(c6ccc7c(c6)C(=O)N(C6CCC(=O)NC6=O)C7)CC5)nc4)CC3)cc2[nH]c1=O (centres unmarked) [Compound 48, N-(1-(2-(2,6-dioxopiperidin-3-yl)-3-oxoisoindolin-5-yl)piperidin-4-yl)-5-(4-((7-ethyl-6-oxo-5,6-dihydro-1,5-naphthyridin-3-yl)methyl)piperazin-1-yl)picolinamide] | 28 nM |  |  | 94.6%
6 | CCc1cc2ncc(CN3CC=C(c4ccc(C(=O)NC5CCN(c6ccc7c(c6)C(=O)N(C6CCC(=O)NC6=O)C7=O)CC5)nc4)CC3)cc2[nH]c1=O (centres unmarked) [Compound 49, N-(1-(2-(2,6-dioxopiperidin-3-yl)-1,3-dioxoisoindolin-5-yl)piperidin-4-yl)-1′-((7-ethyl-6-oxo-5,6-dihydro-1,5-naphthyridin-3-yl)methyl)-1′,2′,3′,6′-tetrahydro-[3,4′-bipyridine]-6-carboxamide] | 101 nM |  |  | 93.8%
7 | CCc1cc2ncc(CN3CCN(c4ccc(C(=O)NC5CCN(CC6CCN(Cc7ccc(-n8c(O)nnc8-c8cc(C(C)C)c(O)cc8O)cc7)CC6)CC5)nc4)CC3)cc2[nH]c1=O [Compound 8, N-(1-((1-(4-(3-(2,4-dihydroxy-5-isopropylphenyl)-5-hydroxy-4H-1,2,4-triazol-4-yl)benzyl)piperidin-4-yl)methyl)piperidin-4-yl)-5-(4-((7-ethyl-6-oxo-5,6-dihydro-1,5-naphthyridin-3-yl)methyl)piperazin-1-yl)picolinamide] | 15 nM |  |  | 99.8%
8 | CCc1cc2ncc(CN3CCN(c4ccc(C(=O)NC5CCN(c6ncc(N7CCC(=O)NC7=O)cn6)CC5)nc4)CC3)cc2[nH]c1=O [Compound 69, N-(1-(5-(2,4-dioxotetrahydropyrimidin-1(2H)-yl)pyrimidin-2-yl)piperidin-4-yl)-5-(4-((7-ethyl-6-oxo-5,6-dihydro-1,5-naphthyridin-3-yl)methyl)piperazin-1-yl)picolinamide] | 15.3 nM |  |  | 88.4%
9 | CCc1cc2ncc(CN3CCN(c4ccc(C(=O)NC5CCN(C(=O)CC67CC8C[C@H](C6)C[C@H](C8)C7)CC5)nc4)CC3)cc2[nH]c1=O [Compound 12, N-(1-(2-((3R,5R)-adamantan-1-yl)acetyl)piperidin-4-yl)-5-(4-((7-ethyl-6-oxo-5,6-dihydro-1,5-naphthyridin-3-yl)methyl)piperazin-1-yl)picolinamide] | 44 nM |  |  | 89.6%

More lines, main results first:

Row | IC50 [1] | SMILES | Max inh. % 10 μM (MDA-MB-436 cells, 10 μM) | IC50 (MDA-MB-436 cells) | inhibition at 10 µM (Homo sapiens, 10 μM)
10 | 12 nM | CCc1cc2ncc(CN3CCN(c4ccc(C(=O)N[C@H]5C[C@H](Nc6ccc7c(c6)C(=O)N(C6CCC(=O)NC6=O)C7=O)C5)nc4)CC3)cc2[nH]c1=O (some centres unmarked) [Compound 38, N-((1r,3r)-3-((2-(2,6-dioxopiperidin-3-yl)-1,3-dioxoisoindolin-5-yl)amino)cyclobutyl)-5-(4-((7-ethyl-6-oxo-5,6-dihydro-1,5-naphthyridin-3-yl)methyl)piperazin-1-yl)picolinamide] |  |  | 77.1%
11 | 2 nM | CCc1cc2ncc(CN3CCN(c4ccc(C(=O)NC5CN(c6ccc7c(c6)C(=O)N(C6CCC(=O)NC6=O)C7=O)C5)nc4)CC3)cc2[nH]c1=O (centres unmarked) [Compound 11, N-(1-(2-(2,6-dioxopiperidin-3-yl)-1,3-dioxoisoindolin-5-yl)azetidin-3-yl)-5-(4-((7-ethyl-6-oxo-5,6-dihydro-1,5-naphthyridin-3-yl)methyl)piperazin-1-yl)picolinamide] |  |  | 99.8%
12 | 61 nM | CCc1cc2ncc(CN3CCN(c4ccc(C(=O)NC5CN(c6cc7c(cc6F)C(=O)N(C6CCC(=O)NC6=O)C7=O)C5)nc4)CC3)cc2[nH]c1=O (centres unmarked) [Compound 17, N-(1-(2-(2,6-dioxopiperidin-3-yl)-6-fluoro-1,3-dioxoisoindolin-5-yl)azetidin-3-yl)-5-(4-((7-ethyl-6-oxo-5,6-dihydro-1,5-naphthyridin-3-yl)methyl)piperazin-1-yl)picolinamide] |  |  | 99%
13 | 33 nM | CCc1cc2ncc(CN3CCN(c4ccc(C(=O)NC5CC(Oc6ccc7c(c6)C(=O)N(C6CCC(=O)NC6=O)C7=O)C5)nc4)CC3)cc2[nH]c1=O (centres unmarked) [Compound 60, N-((1s,3s)-3-((2-(2,6-dioxopiperidin-3-yl)-1,3-dioxoisoindolin-5-yl)oxy)cyclobutyl)-5-(4-((7-ethyl-6-oxo-5,6-dihydro-1,5-naphthyridin-3-yl)methyl)piperazin-1-yl)picolinamide] |  |  | 82%
14 | 21 nM | CCc1cc2ncc(CN3CCN(c4ccc(C(=O)NC5CCN(c6cccc7c6C(=O)N(C6CCC(=O)NC6=O)C7=O)CC5)nc4)CC3)cc2[nH]c1=O (centres unmarked) [Compound 19, N-(1-(2-(2,6-dioxopiperidin-3-yl)-1,3-dioxoisoindolin-4-yl)piperidin-4-yl)-5-(4-((7-ethyl-6-oxo-5,6-dihydro-1,5-naphthyridin-3-yl)methyl)piperazin-1-yl)picolinamide] |  |  | 90.3%
15 | 23 nM | CCc1cc2ncc(CN3CCN(c4ccc(C(=O)N[C@H]5C[C@@H](Nc6ccc7c(c6)C(=O)N(C6CCC(=O)NC6=O)C7=O)C5)nc4)CC3)cc2[nH]c1=O (some centres unmarked) [Compound 37, N-((1s,3s)-3-((2-(2,6-dioxopiperidin-3-yl)-1,3-dioxoisoindolin-5-yl)amino)cyclobutyl)-5-(4-((7-ethyl-6-oxo-5,6-dihydro-1,5-naphthyridin-3-yl)methyl)piperazin-1-yl)picolinamide] |  |  | 92.1%
16 | 19 nM | CCc1cc2ncc(CN3CCN(c4ccc(C(=O)N[C@H]5CCN(c6cc7c(cc6F)C(=O)N(C6CCC(=O)NC6=O)C7=O)C5)nc4)CC3)cc2[nH]c1=O (stereo partly drawn) [Compound 51, N-((3S)-1-(2-(2,6-dioxopiperidin-3-yl)-6-fluoro-1,3-dioxoisoindolin-5-yl)pyrrolidin-3-yl)-5-(4-((7-ethyl-6-oxo-5,6-dihydro-1,5-naphthyridin-3-yl)methyl)piperazin-1-yl)picolinamide] |  |  | 97.5%
17 | 58 nM | CCc1cc2ncc(CN3CC=C(c4ccc(C(=O)N[C@H]5CCN(c6ccc7c(c6)C(=O)N(C6CCC(=O)NC6=O)C7=O)C5)nc4)CC3)cc2[nH]c1=O (stereo partly drawn) [Compound 53, N-((3S)-1-(2-(2,6-dioxopiperidin-3-yl)-1,3-dioxoisoindolin-5-yl)pyrrolidin-3-yl)-1′-((7-ethyl-6-oxo-5,6-dihydro-1,5-naphthyridin-3-yl)methyl)-1′,2′,3′,6′-tetrahydro-[3,4′-bipyridine]-6-carboxamide] |  |  | 98%
18 | 11 nM | CCc1cc2ncc(CN3CCN(c4ccc(C(=O)N[C@H]5C[C@@H](Nc6cc7c(cc6F)C(=O)N(C6CCC(=O)NC6=O)C7=O)C5)nc4)CC3)cc2[nH]c1=O (some centres unmarked) [Compound 41, N-((1s,3s)-3-((2-(2,6-dioxopiperidin-3-yl)-6-fluoro-1,3-dioxoisoindolin-5-yl)amino)cyclobutyl)-5-(4-((7-ethyl-6-oxo-5,6-dihydro-1,5-naphthyridin-3-yl)methyl)piperazin-1-yl)picolinamide] |  |  | 85.7%
19 | 25 nM | CCc1cc2ncc(CN3CCN(c4ccc(C(=O)N[C@H]5CCN(c6ccc7c(c6)C(=O)N(C6CCC(=O)NC6=O)C7=O)C5)nc4)CC3)cc2[nH]c1=O (stereo partly drawn) [Compound 21, N-((3S)-1-(2-(2,6-dioxopiperidin-3-yl)-1,3-dioxoisoindolin-5-yl)pyrrolidin-3-yl)-5-(4-((7-ethyl-6-oxo-5,6-dihydro-1,5-naphthyridin-3-yl)methyl)piperazin-1-yl)picolinamide] |  |  | 88.9%
